The values below come from paper PMC8909834, “An Orally Bioavailable and Highly Efficacious Inhibitor of CDK9/FLT3 for the Treatment of Acute Myeloid Leukemia” (Cancers, 2022).

Experiment in all cases: Kinase Hotspot radiolabel assay
Holding throughout (format): biochemical
Details in all cases: read-out: % Residual Activity

The target in assay [1] is T1, SLK/STK2 (Homo sapiens, UniProt Q9H2G2).
T1 construct: purchased Reaction Biology Corporation (Kinase HotSpot)
Summed up: (§1)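 Profiled at 1 µM compound within a 369-kinase panel using a radiolabel Hotspot format. Ki values were then determined for kinases showing greater than 90% inhibition.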

In assay [2] the target is T2, CDK5/p25 (Homo sapiens, UniProt Q00535).
T2 construct: purchased Reaction Biology Corporation (Kinase HotSpot)
An outline of the steps: as §1

Assay [3] addresses T3, ARK5/NUAK1 (Homo sapiens, UniProt O60285).
T3 construct: purchased Reaction Biology Corporation (Kinase HotSpot)
Summed up: as §1

The target of assay [4] is T4, MAPKAPK5/PRAK (Homo sapiens, UniProt Q8IW41).
T4 construct: purchased Reaction Biology Corporation (Kinase HotSpot)
Summed up: as §1

Assay [5] has as its target T5, MYLK4 (Homo sapiens, UniProt Q86YV6).
T5 construct: purchased Reaction Biology Corporation (Kinase HotSpot)
Summed up:
as §1

Assay [6] addresses T6, DRAK1/STK17A (Homo sapiens, UniProt Q9UEE5).
T6 construct: purchased Reaction Biology Corporation (Kinase HotSpot)
An outline of the steps: as §1

Assay [7] addresses T7, TYK2 (Homo sapiens, UniProt P29597).
T7 construct: purchased Reaction Biology Corporation (Kinase HotSpot)
An outline of the steps: as §1

Assay [8] addresses T8, ALK3/BMPR1A (Homo sapiens, UniProt P36894).
T8 construct: purchased Reaction Biology Corporation (Kinase HotSpot)
An outline of the steps: as §1

For assay [9], the target named is T9, PLK1 (Homo sapiens, UniProt P53350).
T9 construct: purchased Reaction Biology Corporation (Kinase HotSpot)
An outline of the steps: as §1

The target of assay [10] is T10, FGFR2 (Homo sapiens, UniProt P21802).
T10 construct: purchased Reaction Biology Corporation (Kinase HotSpot)
An outline of the steps:
as §1

For assay [11], the target named is T11, PKCg (Homo sapiens, UniProt P05129).
T11 construct: purchased Reaction Biology Corporation (Kinase HotSpot)
An outline of the steps:
as §1

Assay [12] concerns the target T12, CAMK1g (Homo sapiens, UniProt Q96NX5).
T12 construct: purchased Reaction Biology Corporation (Kinase HotSpot)
An outline of the steps:
as §1

Assay [13] addresses T13, RAF1 (Homo sapiens, UniProt P04049).
T13 construct: purchased Reaction Biology Corporation (Kinase HotSpot)
An outline of the steps: as §1

The target of assay [14] is T14, LIMK2 (Homo sapiens, UniProt P53671).
T14 construct: purchased Reaction Biology Corporation (Kinase HotSpot)
An outline of the steps:
as §1

The target of assay [15] is T15, NEK9 (Homo sapiens, UniProt Q8TD19).
T15 construct: purchased Reaction Biology Corporation (Kinase HotSpot)
Summed up: as §1

Assay [16] concerns the target T16, TLK2 (Homo sapiens, UniProt Q86UE8).
T16 construct: purchased Reaction Biology Corporation (Kinase HotSpot)
An outline of the steps:
as §1

T13 sequence (P04049 whole entry): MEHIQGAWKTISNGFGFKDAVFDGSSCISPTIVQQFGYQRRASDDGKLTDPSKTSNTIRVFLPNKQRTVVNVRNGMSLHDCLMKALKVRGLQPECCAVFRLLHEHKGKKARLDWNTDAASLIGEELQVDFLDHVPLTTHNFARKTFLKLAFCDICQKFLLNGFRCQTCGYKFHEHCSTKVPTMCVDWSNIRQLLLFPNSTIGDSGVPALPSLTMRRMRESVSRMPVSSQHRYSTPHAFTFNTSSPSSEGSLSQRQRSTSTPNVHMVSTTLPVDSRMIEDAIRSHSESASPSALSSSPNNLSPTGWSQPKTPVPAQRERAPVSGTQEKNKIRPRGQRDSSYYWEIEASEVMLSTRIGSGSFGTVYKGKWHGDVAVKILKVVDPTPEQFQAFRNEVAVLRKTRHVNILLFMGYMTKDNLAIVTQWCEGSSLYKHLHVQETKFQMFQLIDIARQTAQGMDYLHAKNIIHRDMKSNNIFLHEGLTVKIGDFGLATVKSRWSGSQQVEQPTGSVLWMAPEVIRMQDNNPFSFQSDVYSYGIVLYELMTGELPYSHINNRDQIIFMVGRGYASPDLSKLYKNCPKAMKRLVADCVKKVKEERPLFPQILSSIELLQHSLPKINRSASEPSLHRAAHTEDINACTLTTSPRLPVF
T5 sequence (Q86YV6 whole entry): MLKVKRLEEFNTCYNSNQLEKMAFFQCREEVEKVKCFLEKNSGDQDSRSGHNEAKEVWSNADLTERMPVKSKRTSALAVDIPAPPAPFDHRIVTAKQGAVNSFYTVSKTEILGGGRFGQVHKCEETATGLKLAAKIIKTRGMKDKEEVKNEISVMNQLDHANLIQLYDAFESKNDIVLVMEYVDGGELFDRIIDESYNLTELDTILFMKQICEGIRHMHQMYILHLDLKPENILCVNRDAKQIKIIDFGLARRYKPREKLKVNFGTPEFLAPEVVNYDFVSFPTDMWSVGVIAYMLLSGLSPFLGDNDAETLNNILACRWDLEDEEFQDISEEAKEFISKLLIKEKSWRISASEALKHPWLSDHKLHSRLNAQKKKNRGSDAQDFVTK
T2 sequence (Q00535 whole entry): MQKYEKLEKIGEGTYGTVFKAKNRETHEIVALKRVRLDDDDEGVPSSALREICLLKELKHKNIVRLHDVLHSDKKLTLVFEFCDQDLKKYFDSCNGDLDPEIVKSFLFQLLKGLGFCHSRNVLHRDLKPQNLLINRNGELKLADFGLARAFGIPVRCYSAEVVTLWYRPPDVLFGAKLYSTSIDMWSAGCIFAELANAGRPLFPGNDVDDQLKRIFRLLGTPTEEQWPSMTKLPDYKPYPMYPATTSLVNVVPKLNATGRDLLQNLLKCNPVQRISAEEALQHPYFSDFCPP
T2 sequence (Q15078 99-307 partner limits assumed): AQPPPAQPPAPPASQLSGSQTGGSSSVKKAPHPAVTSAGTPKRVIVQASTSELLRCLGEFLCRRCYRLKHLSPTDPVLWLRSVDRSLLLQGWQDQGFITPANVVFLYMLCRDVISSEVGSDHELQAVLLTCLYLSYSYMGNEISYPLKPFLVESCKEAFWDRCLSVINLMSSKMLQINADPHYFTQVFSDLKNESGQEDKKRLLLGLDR
T8 sequence (P36894 24-532): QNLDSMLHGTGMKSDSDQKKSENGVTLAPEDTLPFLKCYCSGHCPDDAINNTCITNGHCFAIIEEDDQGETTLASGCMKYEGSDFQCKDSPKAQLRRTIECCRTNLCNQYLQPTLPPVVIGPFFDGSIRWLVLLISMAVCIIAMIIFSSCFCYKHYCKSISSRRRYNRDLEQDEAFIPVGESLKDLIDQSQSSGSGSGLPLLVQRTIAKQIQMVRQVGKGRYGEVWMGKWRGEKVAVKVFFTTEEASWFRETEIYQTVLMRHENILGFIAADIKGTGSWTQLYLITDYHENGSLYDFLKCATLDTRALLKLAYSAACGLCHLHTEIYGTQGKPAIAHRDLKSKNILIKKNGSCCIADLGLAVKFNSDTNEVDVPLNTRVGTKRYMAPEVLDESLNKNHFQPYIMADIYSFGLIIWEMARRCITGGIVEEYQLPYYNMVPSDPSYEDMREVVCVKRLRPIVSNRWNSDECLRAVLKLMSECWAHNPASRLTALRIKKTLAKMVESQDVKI
T16 sequence (Q86UE8 whole entry): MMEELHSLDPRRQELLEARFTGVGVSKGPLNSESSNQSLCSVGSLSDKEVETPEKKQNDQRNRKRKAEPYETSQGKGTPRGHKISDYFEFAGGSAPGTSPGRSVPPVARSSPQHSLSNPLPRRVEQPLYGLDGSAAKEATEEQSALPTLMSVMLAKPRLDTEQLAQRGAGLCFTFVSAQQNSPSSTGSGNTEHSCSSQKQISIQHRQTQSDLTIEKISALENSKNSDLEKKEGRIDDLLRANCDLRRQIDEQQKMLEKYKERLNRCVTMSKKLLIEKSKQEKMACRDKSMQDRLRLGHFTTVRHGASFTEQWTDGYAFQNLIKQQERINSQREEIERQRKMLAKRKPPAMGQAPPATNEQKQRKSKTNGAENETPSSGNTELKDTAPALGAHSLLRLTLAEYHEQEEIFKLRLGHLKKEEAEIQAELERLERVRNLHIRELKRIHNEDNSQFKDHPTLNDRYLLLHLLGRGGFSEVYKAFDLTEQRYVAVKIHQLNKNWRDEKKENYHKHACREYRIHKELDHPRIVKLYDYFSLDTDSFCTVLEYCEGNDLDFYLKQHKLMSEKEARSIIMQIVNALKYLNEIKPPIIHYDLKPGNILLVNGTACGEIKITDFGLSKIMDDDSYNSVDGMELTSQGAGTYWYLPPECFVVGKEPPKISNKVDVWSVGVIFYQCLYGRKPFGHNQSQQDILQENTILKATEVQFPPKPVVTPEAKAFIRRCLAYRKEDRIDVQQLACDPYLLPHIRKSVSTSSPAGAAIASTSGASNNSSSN
T9 sequence (P53350 whole entry): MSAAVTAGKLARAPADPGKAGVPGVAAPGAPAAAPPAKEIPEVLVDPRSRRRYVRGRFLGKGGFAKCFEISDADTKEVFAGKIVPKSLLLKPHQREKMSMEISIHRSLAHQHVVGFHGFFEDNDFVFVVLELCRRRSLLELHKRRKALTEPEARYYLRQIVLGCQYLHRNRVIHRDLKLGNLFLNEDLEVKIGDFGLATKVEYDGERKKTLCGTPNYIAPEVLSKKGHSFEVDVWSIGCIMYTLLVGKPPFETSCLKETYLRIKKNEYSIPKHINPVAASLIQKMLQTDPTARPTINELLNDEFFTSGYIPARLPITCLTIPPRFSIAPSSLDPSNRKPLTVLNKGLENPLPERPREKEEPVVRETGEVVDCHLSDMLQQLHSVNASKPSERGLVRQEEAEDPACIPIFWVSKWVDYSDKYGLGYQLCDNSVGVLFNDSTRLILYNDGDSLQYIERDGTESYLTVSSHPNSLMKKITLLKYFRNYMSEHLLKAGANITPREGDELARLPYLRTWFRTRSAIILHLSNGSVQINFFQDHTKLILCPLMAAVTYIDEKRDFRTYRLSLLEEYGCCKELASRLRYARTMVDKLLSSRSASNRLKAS
T3 sequence (O60285 whole entry): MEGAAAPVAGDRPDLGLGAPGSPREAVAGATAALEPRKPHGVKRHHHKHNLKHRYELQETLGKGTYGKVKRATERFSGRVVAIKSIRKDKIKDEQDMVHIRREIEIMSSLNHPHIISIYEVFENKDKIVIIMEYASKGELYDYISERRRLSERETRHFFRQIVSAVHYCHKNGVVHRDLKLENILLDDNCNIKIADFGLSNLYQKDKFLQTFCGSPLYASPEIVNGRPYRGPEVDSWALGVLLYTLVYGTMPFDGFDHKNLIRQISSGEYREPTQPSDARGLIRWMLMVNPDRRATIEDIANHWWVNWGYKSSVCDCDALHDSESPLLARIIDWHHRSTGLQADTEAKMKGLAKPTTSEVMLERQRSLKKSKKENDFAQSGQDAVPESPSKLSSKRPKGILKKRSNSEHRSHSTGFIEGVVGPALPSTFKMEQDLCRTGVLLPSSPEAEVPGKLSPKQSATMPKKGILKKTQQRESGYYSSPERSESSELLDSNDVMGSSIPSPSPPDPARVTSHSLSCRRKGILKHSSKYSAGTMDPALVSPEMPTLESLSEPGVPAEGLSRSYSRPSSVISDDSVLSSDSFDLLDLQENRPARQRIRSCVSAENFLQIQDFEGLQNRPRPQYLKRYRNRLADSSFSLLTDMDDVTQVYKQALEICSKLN
T4 sequence (Q8IW41 whole entry): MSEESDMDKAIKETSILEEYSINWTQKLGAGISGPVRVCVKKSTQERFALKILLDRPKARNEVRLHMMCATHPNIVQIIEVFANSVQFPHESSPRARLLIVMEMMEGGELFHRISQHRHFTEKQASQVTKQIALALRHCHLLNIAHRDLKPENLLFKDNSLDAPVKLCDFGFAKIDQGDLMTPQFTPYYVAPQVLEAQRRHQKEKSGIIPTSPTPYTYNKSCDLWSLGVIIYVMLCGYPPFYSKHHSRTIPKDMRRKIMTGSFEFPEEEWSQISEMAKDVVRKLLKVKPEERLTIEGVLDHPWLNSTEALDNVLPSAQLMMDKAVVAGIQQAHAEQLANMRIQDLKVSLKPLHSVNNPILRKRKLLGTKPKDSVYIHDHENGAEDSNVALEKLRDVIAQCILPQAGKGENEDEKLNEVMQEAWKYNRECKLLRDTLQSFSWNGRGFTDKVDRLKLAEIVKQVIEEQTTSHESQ
T6 sequence (Q9UEE5 whole entry): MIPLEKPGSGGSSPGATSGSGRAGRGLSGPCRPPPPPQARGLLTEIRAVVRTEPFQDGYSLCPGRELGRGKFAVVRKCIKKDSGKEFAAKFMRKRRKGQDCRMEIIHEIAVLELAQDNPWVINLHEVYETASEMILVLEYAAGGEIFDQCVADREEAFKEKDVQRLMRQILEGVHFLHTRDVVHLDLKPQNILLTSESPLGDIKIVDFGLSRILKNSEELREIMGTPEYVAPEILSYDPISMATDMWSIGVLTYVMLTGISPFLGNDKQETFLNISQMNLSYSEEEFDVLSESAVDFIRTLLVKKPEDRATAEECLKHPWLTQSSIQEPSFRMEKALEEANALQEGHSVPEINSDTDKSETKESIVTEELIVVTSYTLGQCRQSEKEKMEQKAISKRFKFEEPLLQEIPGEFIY

In the case of `Cc1cnc(N[C@H]2CC[C@H](N)CC2)nc1-c1cnc2ccc(-c3ccccc3)cn12` [CDDD11-8], the remaining activity at 1 µM is 89.8% in [1]; 77.8% in [2]; 7.93% in [3]; 99.4% in [4]; 11.5% in assay [5]; 92.5% in [6]. For the same compound, the remaining activity at 1 µM in [7] amounted to 93.2%; in assay [8], 98%; in assay [9] it was 97.3%; in assay [10], 72.5%; in assay [11], 87.9%; in assay [12], 97.7%. Moreover, the remaining activity at 1 µM was determined as 98.1% in assay [13], 93.8% in [14], 84.7% in assay [15] and 97.8% in assay [16].
